The source of these data is patent publication US5068248A, “N-alkenyl-3-hydroxybenzo[b]thiophene-2-carboxamide derivatives as dual cyclooxygenase and lipoxygenase inhibitors” (Merck & Co., Inc., priority 1989, dated 1991).

Like-named read-outs stand apart in the source and are kept apart here.

One data set has as its system PBQ-induced writhing. The data set is described as follows: Phenylbenzoquinone (PBQ)-induced writhing in the Mouse. The format is in vivo, female mice (CD-1). The following applies: for ED50: Mus musculus, po; for % Inhibition: writhing. How it is done:
2. PHENYLBENZOQUINONE (PBQ)-induced writhing in the Mouse […] Groups of 10 female mice (CD-1, Charles River Breeding Laboratories), weighing 20-25 g were fasted overnight prior to experiments. […] The number of writhes for each animal was recorded and the group means and standard errors were calculated. The means obtained from the drug treated groups were compared to the vehicle control means values and percent inhibition of writhing was calculated. ED50 values were calculated by regression analysis.

The subject of a further data set is PAF-induced hyperalgesia. The data set is described as follows: Platelet Activating Factor (PAF) Induced Hyperalgesia in the Rat. The format is in vivo, female Sprague-Dawley rats. The following applies: for responders at 30 mg/kg: Rattus norvegicus, read-out: % Rats Exhibiting Analgesia; for Effect in PAF-induced hyperalgesia assay: p.o.; for Vocalization Threshold: mean in inflamed paw 3 hr after PAF; for % Analgesia: percentage of animals with V.T. greater than 200% of vehicle-treated controls. How it is done:
1. Platelet Activating Factor. Induced Hyperalgesia in the Rat.
Groups of 10 female Sprague-Dawley rats, 35-50 g (Taconic Farms), were fasted overnight prior to testing. Hyperalgesia was induced in the rat by the subplantar injection of 1 ug PAF in physiological saline. Pain threshold was measured by applying pressure to the plantar surface of the hindpaw by means of a compressed air driven piston with a 2 mm tip. Vocalization thresholds were obtained 3 hr after injection of the PAF. Compounds, prepared at various doses in 1% methylcellulose suspension, were administered perorally 30 min before PAF. For each drug treatment group, animals with response pressures in the inflamed paw of 200% of control was considered to be analgesic. The mean vocalization threshold for each group was also calculated.

The test system of data set [1] is gastric acid secretion / gastric cytoprotection. To be noted: S. Szabo et al., Experimentia, 38, 254, 1982; cited from earlier work.
Data set [2] relates to indomethacin-induced gastric lesions. The data set is classed as in vivo, Male Sprague-Dawley rats. To be noted: for No. Gastric Lesions: Mean + S.E.M. How it is done:
Male Sprague-Dawley rats, 130-150 g each, were sorted into groups for assay. The rats were fasted for 24 hours.
Several hours after the administration of compound A, the animals are sacrificed, the stomachs removed, excises along the inner curvature, washed carefully with cool tap water and placed in 0.9% saline. When all groups have been processed, the mucosal region of the stomachs are examined under a magnifying lens and scored according to the total number of lesions present. Group scores represent the mean score of animals in that group. The effect of Compound A on indomethacin-induced gastric lesions is shown below in Table 6: […]

Data set [3] concerns adjuvant-induced arthritis (Mycobacterium butyricum). The data set is described as follows: Developing Adjuvant-Induced Arthritis Assay in the Lewis Rat. The following applies: for Adrenal Weight / Change Body Weight 0-21 days / Foot Swelling-Day 21 / Thymus Weight / Foot Swelling-Day 14: mean ± SEM; for Bone/Cartilage Destruction Score: score 0-3, 0 = 0 destruction, 3 = Maximum destruction; for Protection from bone/cartilage (hard tissue) destruction, X-ray: day 21, hindpaw joints, Compound A 3.0 and 10 mg/kg/day, Indomethacin 1 mg/kg/day. Further details: Foot Swelling-Day 14: unit not given here. The data set is classed as in vivo, Female Lewis rats. Here is the method:
3. Adjuvant Arthritis Assay
During the development of adjuvant arthritis, the rats lose body weight, the thymus gland involutes and the adrenal gland weight increases.
Female Lewis rats (purchased from Charles River, Wilmington, MA) were sorted into groups of ten in the weight range 160-199 g. The rats were sensitized to Mycobacterium butyricum (Difco) by the subplantar injection of 0.1 ml light mineral oil (Lubinol, Purepac Pharmaceutical Co., Elizabeth, NJ) containing 0.5 mg of the Mycobacterium into the left hindpaw. The Mycobacterium suspension was prepared by grinding in a glass mortar followed by the addition of the appropriate volume of light mineral oil. The suspension was transferred to a glass vial and stirred for 15 minutes on a magnetic stirrer to obtain a uniform suspension. After sensitization the rats were returned to metronic wire-bottomed cages and allowed food and water ad libitum with the food placed on the bottom of the cages for easy access. […] Rats received compound daily perorally as a suspension in 0.25% agar starting on the day of sensitization. Disease was quantitated by measuring the volume of the noninjected hindpaw by mercury displacement on days 0, 14 and 21. On day 21 (at the termination of the experiment) x-rays of the noninjected hindpaw were taken using a Phillips dental x-ray machine. Total body weight was determined on days 0 and 21 and at the termination of the experiment the thymus was removed and weighed. The statistical significance of the data was determined using Students t test.

[4] abbreviates: Platelet, po, 3 h, Table 2, 30 mg/kg p.o.

As usually defined, the ED50 is the dose at which the effect has come halfway, by size or by number of responders. `CN1C(C(=O)Nc2ccccn2)=C(O)c2ccccc2S1(=O)=O` [Piroxicam, reference compound] returned an ED50 with PBQ-induced writhing of 2 mg/kg. In addition, the responders at 30 mg/kg in the data set with PAF-induced hyperalgesia (setting [4]) amounted to 0%. Besides, the “Effect in PAF-induced hyperalgesia assay” value in the data set with PAF-induced hyperalgesia (rat) is reported as “completely ineffective”.
For `CC1=C(CC(=O)O)c2cc(F)ccc2/C1=C\c1ccc([S+](C)[O-])cc1` (stereo not shown) [Sulindac, reference compound], the responders at 30 mg/kg in the data set with PAF-induced hyperalgesia (setting [4]) was 10%.
For `CC(=O)Oc1ccccc1C(=O)O` [Aspirin, reference compound], the “% Rats Exhibiting Analgesia” value in the data set on PAF-induced hyperalgesia (Table 2, 100 mg/kg p.o.) amounted to 10%.
Consider `CCCCC[C@H](O)/C=C/[C@@H]1[C@@H](C/C=C\CCCC(=O)O)[C@H](O)C[C@H]1O` [protaglandin F2B], for which, in data set [1], the “Gastric cytoprotection” value is given as “does induce gastric cytoprotection” and the “Inhibition of gastric acid secretion” value is recorded as “does not inhibit gastric acid secretion”.
On to `COc1ccc2c(c1)c(CC(=O)O)c(C)n2C(=O)c1ccc(Cl)cc1` [Indomethacin, reference compound], for which the “No. Gastric Lesions” value in data set [2] (indomethacin alone 10.0 mg/kg P.O.) is listed as 12.6 ± 4.4. For the same compound, in data set [3] (1.0 mg/kg/day P.O.), the “% Inhibition Foot Swelling-Day 14” value is reported as 87%, the “% Inhibition Foot Swelling-Day 21” value was determined as 88%, the “Adrenal Weight” value was 82.7 ± 2.8 mg and the “Change Body Weight 0-21 days” value is listed as 0.7 ± 3.4 gm. For the same compound, in data set [3] (1.0 mg/kg/day P.O.), the “Foot Swelling-Day 21” value was found to be 190 ± 38, the “Thymus Weight” value was 359.6 ± 17.9 mg and the “Bone/Cartilage Destruction Score” value was 0.1. Further, the “Protection from bone/cartilage (hard tissue) destruction, X-ray” value in data set [3] is reported as “virtually complete protection from hard tissue destruction”. Moreover, the “% Rats Exhibiting Analgesia” value with PAF-induced hyperalgesia (Table 2, 10 mg/kg p.o.) was found to be 10%. For the same compound, in the data set on PAF-induced hyperalgesia (rat), the “Effect in PAF-induced hyperalgesia assay” value is “completely ineffective”.
In the case of `CC(C(=O)O)c1ccc2oc(-c3ccc(Cl)cc3)nc2c1` (stereo not shown) [Benoxaprofen, reference compound], the responders at 30 mg/kg in the data set with PAF-induced hyperalgesia (setting [4]) stood at 10%. For the same compound, the “Effect in PAF-induced hyperalgesia assay” value in the data set on PAF-induced hyperalgesia (rat) is reported as “completely ineffective”.
`CC(C)Cc1ccc(C(C)C(=O)O)cc1` (stereo not shown) [Ibuprofen, reference compound] yielded an ED50 with PBQ-induced writhing of 9 mg/kg. The responders at 30 mg/kg with PAF-induced hyperalgesia (setting [4]) was 10%. In the data set with PAF-induced hyperalgesia (rat), the “Effect in PAF-induced hyperalgesia assay” value is recorded as “completely ineffective”.
As a reminder, the % Inhibition is the share of the control response that was lost under treatment. Turning to `O=C(NC=C(c1ccccc1)c1cccs1)c1sc2ccc(C(F)(F)F)cc2c1O` [Compound A, 3-hydroxy-5-trifluoromethyl-N-[2-phenyl-2-(2-thienyl)]-benzo[b]thiophene-2-carboxamide], the “% Inhibition of Lesions” value is listed as 47% in data set [2] (0.1 mg/kg P.O.), 60% in data set [2] (0.3 mg/kg P.O.), 52% in data set [2] (1.0 mg/kg P.O.) and 81% in data set [2] (10.0 mg/kg P.O.). Further, the “No. Gastric Lesions” value in data set [2] (0.1 mg/kg P.O., indomethacin-induced (10 mg/kg)) was 6.7 ± 4.1; in data set [2] (0.3 mg/kg P.O., indomethacin-induced (10 mg/kg)), 5.0 ± 3.1; in data set [2] (1.0 mg/kg P.O., indomethacin-induced (10 mg/kg)) it was 6.1 ± 5.5; in data set [2] (10.0 mg/kg P.O., indomethacin-induced (10 mg/kg)) it was 2.4 ± 1.1. Further, the ED50 in the data set on PBQ-induced writhing was found to be 1 mg/kg; in data set [3] (po, 336 h, rat, p.o., swelling of noninjected hindpaw, day 14), 3 mg/kg; in the data set with PAF-induced hyperalgesia (Platelet, po, 3 h, rat, dose required to raise VT to greater than 200% of vehicle-treated control in 50% of animals, confidence limits 0.11-0.3) it was 0.19 mg/kg. The “Analgesic activity compared with standard drugs” value in the data set on PBQ-induced writhing (mouse, PBQ writhing, p.o.) was “equivalent to piroxicam and greater than ibuprofen”. Also, the “% Inhibition” value in the data set on PBQ-induced writhing (mouse, 0.1 mg/kg p.o. 1 hr before PBQ) is given as 9 ± 3%; in the data set with PBQ-induced writhing (mouse, 0.3 mg/kg p.o. 1 hr before PBQ), 10 ± 5%; in the data set with PBQ-induced writhing (mouse, 1.0 mg/kg p.o. 1 hr before PBQ), 39 ± 13%; in the data set with PBQ-induced writhing (mouse, 3.0 mg/kg p.o. 1 hr before PBQ) it was 78 ± 7%. For the same compound, the “% Inhibition Foot Swelling-Day 14” value in data set [3] (3.0 mg/kg/day P.O.) worked out at 56%; in data set [3] (10.0 mg/kg/day P.O.), 73%. The figures for the “% Inhibition Foot Swelling-Day 21” value in data set [3] (3.0 mg/kg/day P.O.) and in data set [3] (10.0 mg/kg/day P.O.) were 43% and 66%, respectively. Further, the “Adrenal Weight” value in data set [3] (3.0 mg/kg/day P.O.) worked out at 74.6 ± 3.3 mg; in data set [3] (10.0 mg/kg/day P.O.) it was 91.8 ± 2.7 mg. The “Change Body Weight 0-21 days” value is given as -14.7 ± 3.2 gm in data set [3] (3.0 mg/kg/day P.O.) and -12.2 ± 2.9 gm in data set [3] (10.0 mg/kg/day P.O.). Further, the “Foot Swelling-Day 14” value in data set [3] (3.0 mg/kg/day P.O.) is reported as 449 ± 83; in data set [3] (10.0 mg/kg/day P.O.) it was 279 ± 39. Also, the “Foot Swelling-Day 21” value in data set [3] (3.0 mg/kg/day P.O.) is 921 ± 125; in data set [3] (10.0 mg/kg/day P.O.) it was 554 ± 67. Also, the figures for the “Thymus Weight” value in data set [3] (3.0 mg/kg/day P.O.) and in data set [3] (10.0 mg/kg/day P.O.) were 161.0 ± 17.7 mg and 241.5 ± 17.1 mg, respectively. The “Bone/Cartilage Destruction Score” value came out at 2.6 in data set [3] (3.0 mg/kg/day P.O.) and 1.1 in data set [3] (10.0 mg/kg/day P.O.). The “Effect on thymus weight loss” value in data set [3] (10 mg/kg/day) is on record as “inhibited the loss in weight of the thymus”. The “Effect on body weight loss” value in data set [3] (both dose levels (3.0 and 10 mg/kg/day)) is given as “significantly inhibited body weight loss”. In addition, the “Inhibition of swelling of the noninjected hindpaw” value in data set [3] (chronic (21 days)) is given as “marked inhibition of swelling of the noninjected hindpaw”. Besides, the “Protection from bone/cartilage (hard tissue) destruction, X-ray” value in data set [3] was “protection of the bone and cartilage destruction was only seen at the 10 mg/kg day dose level”. In the data set on PAF-induced hyperalgesia (Table 2, 0.1 mg/kg p.o.), the “% Rats Exhibiting Analgesia” value came out at 50%. Besides, the “Vocalization Threshold” value in the data set with PAF-induced hyperalgesia (rat, 0.001 mg/kg p.o. 30 min before PAF) was 10.2 mmHg; with PAF-induced hyperalgesia (rat, 0.01 mg/kg p.o. 30 min before PAF) it was 13.3 mmHg; with PAF-induced hyperalgesia (rat, 0.03 mg/kg p.o. 30 min before PAF) it was 13.0 mmHg; in the data set on PAF-induced hyperalgesia (rat, 0.1 mg/kg p.o. 30 min before PAF), 16.9 mmHg; with PAF-induced hyperalgesia (rat, 0.3 mg/kg p.o. 30 min before PAF), 17.6 mmHg; in the data set on PAF-induced hyperalgesia (rat, 1.0 mg/kg p.o. 30 min before PAF), 20.1 mmHg. The “Vocalization Threshold” value in the data set on PAF-induced hyperalgesia (rat, 3.0 mg/kg p.o. 30 min before PAF) came to 18.3 mmHg. Besides, the “% Analgesia” value in the data set on PAF-induced hyperalgesia (rat, 0.001 mg/kg p.o.) was 10%; in the data set with PAF-induced hyperalgesia (rat, 0.01 mg/kg p.o.), 25%; with PAF-induced hyperalgesia (rat, 0.03 mg/kg p.o.) it was 30%; in the data set with PAF-induced hyperalgesia (rat, 0.1 mg/kg p.o.) it was 50%; in the data set on PAF-induced hyperalgesia (rat, 0.3 mg/kg p.o.) it was 50%; in the data set on PAF-induced hyperalgesia (rat, 1.0 mg/kg p.o.) it was 67%. Moreover, in the data set with PAF-induced hyperalgesia (rat, 3.0 mg/kg p.o.), the “% Analgesia” value turned out to be 70%.
`O=C(O)c1cc(-c2ccc(F)cc2F)ccc1O` [Diflunisal, reference compound]: the responders at 30 mg/kg in the data set with PAF-induced hyperalgesia (setting [4]) worked out at 10%.
Consider `COc1ccc2cc([C@H](C)C(=O)O)ccc2c1` [Naproxen, reference compound], for which the “% Rats Exhibiting Analgesia” value in the data set on PAF-induced hyperalgesia (Table 2, 30 mg/kg p.o.) was 10%.
